The values below come from PMC11141402, “Cyclic β^2,3-amino acids improve the serum stability of macrocyclic peptide inhibitors targeting the SARS-CoV-2 main protease” (Bulletin of the Chemical Society of Japan, 2024).

The target in data set [1] is T1, SARS-CoV-2 M^pro (Severe acute respiratory syndrome coronavirus 2, UniProt P0DTD1).
T1 construct: also known as 3-chymotrypsin-like cysteine protease (3CL^pro) and nonstructural protein 5 (nsp5)
The data set is described as follows: biochemical.

The nature of data set [2]: Serum stability assay in human serum, LC/MS. The data set is classed as in vitro ADME. The conditions noted are these: 37 °C, peptide 10 μM, up to 168 h, mean ± s.d. (n = 3), read-out: t1/2 in serum (converted). The method, then:
A synthetic macrocyclic peptide (10 μM) and a serum-resistant internal standard peptide consisting only of D-amino acids (NH2-PEG5-wstndwstnd-PEG5-CONH2, 5 μM) were mixed and incubated in human serum (Cosmo Bio, 12181201) at 37 °C for up to 168 h.[16] At each time point, 4 μL of the mixture was removed and quenched by adding 12 μL of methanol, followed by incubation on ice for 15 min. Following centrifugation (15,000 × g, 25 °C, 10 min), 10 μL of the supernatant was mixed with 40 μL of 1% (v/v) TFA in water. Following centrifugation (15,000 × g, 25 °C, 5 min), the supernatant was analyzed using LC/MS employing a reverse-phase column (ACQUITY UPLC BEH C18, 1.7 μm, 2.1 × 150 mm; Waters) and a Xevo G2-XS QTof system (Waters) with a linear gradient from 1% B to 61% B. Buffer A: water with 0.1% (v/v) formic acid; buffer B: acetonitrile with 0.1% (v/v) formic acid. The percentages of remaining peptides were determined by using the peak area integration of the chromatograms. The obtained LC/MS data were analyzed using a MassLynx 4.1 (Waters).

Data set [3] concerns the target T1, SARS-CoV-2 M^pro. The data set is described as follows: biochemical. The data set is classed as binding. The conditions noted are these: for kon: read-out: ka (kinetic association).

*1 amine or outer side, *2 acyl side, *3 side chain or, on linkers, in order; H or OH if unused. Where a SMILES comes first, the peptide text is derived from it. Bridges are numbered along the chain shown (N, C = ends). [ ]: non-standard residue; d: D form. ACHC(1S,2S) = O=C([C@H]1CCCC[C@@H]1N[*:1])[*:2]; X1 = O=C([C@@H]1CCC[C@@H]1N[*:1])[*:2] Bounds are passed on as bounds.

Take `CC(C)C[C@@H]1NC(=O)[C@H]2CCCC[C@@H]2NC(=O)[C@H](CC(N)=O)NC(=O)[C@H](CC(=O)O)NC(=O)[C@H](Cc2ccc(O)cc2)NC(=O)[C@H](CCCNC(=N)N)NC(=O)[C@H](Cc2c[nH]cn2)NC(=O)[C@H](Cc2ccccc2)NC(=O)[C@@H](Cc2ccc(O)cc2)NC(=O)CSC[C@H](C(N)=O)NC(=O)[C@H](Cc2ccc(O)cc2)NC(=O)[C@H](C(C)C)NC1=O` [BM3, ^AcyFHRYDNβ^2LVYc-NH2] ({CH2CO}-[dY]FHRYDN[ACHC(1S,2S)]LVY[dC]-NH2; thioether N-12): the midpoint of inhibition against SARS-CoV-2 M^pro [1], the IC50, lay at 40 nM. Moreover, the half-life at 10 μM in data set [2] is 2880 min. In addition, at SARS-CoV-2 M^pro [3], the Kd was 7.7 nM and the kon came to 810000 M⁻¹ s⁻¹.

Regarding `CC(C)C[C@@H]1NC(=O)[C@H](C)NC(=O)[C@H](CC(N)=O)NC(=O)[C@H](CC(=O)O)NC(=O)[C@H](Cc2ccc(O)cc2)NC(=O)[C@H](CCCNC(=N)N)NC(=O)[C@H](Cc2c[nH]cn2)NC(=O)[C@H](Cc2ccccc2)NC(=O)[C@@H](Cc2ccc(O)cc2)NC(=O)CSC[C@H](C(N)=O)NC(=O)[C@H](Cc2ccc(O)cc2)NC(=O)[C@H](C(C)C)NC1=O` [BM3A, ^AcyFHRYDNA LVYc-NH2] ({CH2CO}-[dY]FHRYDNALVY[dC]-NH2; thioether N-12), the IC50 at SARS-CoV-2 M^pro [1] was greater than 25000 nM. The half-life at 10 μM in data set [2] was 276 min. Further, the Kd at SARS-CoV-2 M^pro [3] was greater than 10000 nM.

Molecule `CC(C)C[C@@H]1NC(=O)[C@@H](Cc2ccc(O)cc2)NC(=O)CSC[C@H](C(N)=O)NC(=O)[C@H](Cc2ccccc2)NC(=O)[C@H](Cc2c[nH]cn2)NC(=O)[C@@H]2CCCN2C(=O)[C@H](CC(N)=O)NC(=O)[C@@H]2CCC[C@@H]2NC(=O)[C@H]([C@@H](C)O)NC(=O)[C@H](Cc2c[nH]cn2)NC1=O` [BM4, ^AcyLHTβ^1NPHFc-NH2] ({CH2CO}-[dY]LHT[X1]NPHF[dC]-NH2; thioether N-10) came in with an IC50 at SARS-CoV-2 M^pro [1] greater than 8000 nM. Also, on SARS-CoV-2 M^pro [3], binding was put at a Kd of 1200 nM and the kon is 1700 M⁻¹ s⁻¹.

At SARS-CoV-2 M^pro [1], `CC(C)C[C@@H]1NC(=O)[C@H](CC(N)=O)NC(=O)[C@H](Cc2c[nH]cn2)NC(=O)[C@H](Cc2ccccc2)NC(=O)[C@@H]2CCC[C@@H]2NC(=O)[C@H](Cc2c[nH]cn2)NC(=O)[C@H](Cc2ccccc2)NC(=O)[C@@H](Cc2ccc(O)cc2)NC(=O)CSC[C@H](C(N)=O)NC(=O)[C@H](Cc2c[nH]cn2)NC(=O)[C@H](CC(C)C)NC(=O)[C@H](CCCNC(=N)N)NC(=O)[C@H](Cc2ccccc2)NC1=O` [BM5, ^AcyFHβ^1FHNLFRLHc-NH2] ({CH2CO}-[dY]FH[X1]FHNLFRLH[dC]-NH2; thioether N-13) displayed an IC50 of 360 nM. Also, on SARS-CoV-2 M^pro [3], the affinity, expressed as Kd, was 22 nM and the kon worked out at 36000 M⁻¹ s⁻¹.

In turn, `CC(C)C[C@@H]1NC(=O)[C@H](CO)NC(=O)[C@H](CCCNC(=N)N)NC(=O)[C@H](Cc2ccccc2)NC(=O)[C@@H]2CCC[C@@H]2NC(=O)[C@H](Cc2c[nH]cn2)NC(=O)[C@H](Cc2ccccc2)NC(=O)[C@@H](Cc2ccc(O)cc2)NC(=O)CSC[C@H](C(N)=O)NC(=O)CNC(=O)[C@H](Cc2ccccc2)NC(=O)[C@H](C(C)C)NC(=O)[C@H](Cc2ccccc2)NC1=O` [BM6, ^AcyFHβ^1FRSLFVFGc-NH2] ({CH2CO}-[dY]FH[X1]FRSLFVFG[dC]-NH2; thioether N-13) displayed an IC50 at SARS-CoV-2 M^pro [1] of 2150 nM. Moreover, on SARS-CoV-2 M^pro [3], the affinity, expressed as Kd, was 2.9 nM and the kon worked out at 260000 M⁻¹ s⁻¹.

For the molecule `CC(C)C[C@@H]1NC(=O)[C@H](Cc2c[nH]cn2)NC(=O)[C@H](Cc2ccc(O)cc2)NC(=O)[C@@H]2CCC[C@@H]2NC(=O)[C@H](CC(=O)O)NC(=O)[C@H](Cc2ccccc2)NC(=O)[C@@H](Cc2ccc(O)cc2)NC(=O)CSC[C@H](C(N)=O)NC(=O)[C@H](CCCNC(=N)N)NC(=O)[C@@H]2CCC[C@@H]2NC(=O)[C@H](CC(N)=O)NC1=O` [BM7, ^AcyFDβ^1YHLNβ^1Rc-NH2] ({CH2CO}-[dY]FD[X1]YHLN[X1]R[dC]-NH2; thioether N-11), half-maximal inhibition on SARS-CoV-2 M^pro [1] (IC50) required 20 nM. The half-life at 10 μM in data set [2] is greater than 10100 min. Also, on SARS-CoV-2 M^pro [3], the affinity, expressed as Kd, was 9.6 nM and the kon was found to be 170000 M⁻¹ s⁻¹.

`CC(C)C[C@@H]1NC(=O)[C@H](Cc2c[nH]cn2)NC(=O)[C@H](Cc2ccc(O)cc2)NC(=O)[C@H](C)NC(=O)[C@H](CC(=O)O)NC(=O)[C@H](Cc2ccccc2)NC(=O)[C@@H](Cc2ccc(O)cc2)NC(=O)CSC[C@H](C(N)=O)NC(=O)[C@H](CCCNC(=N)N)NC(=O)[C@H](C)NC(=O)[C@H](CC(N)=O)NC1=O` [BM7A, ^AcyFDA YHLNA Rc-NH2] ({CH2CO}-[dY]FDAYHLNAR[dC]-NH2; thioether N-11) gave a half-inhibitory concentration (IC50) against SARS-CoV-2 M^pro [1] greater than 25000 nM. The half-life at 10 μM in data set [2] is 252 min. The Kd at SARS-CoV-2 M^pro [3] is greater than 10000 nM.
